Experimental data as given in PMC10748408 (Frontiers in Oncology, 2023).
Marks after values point to notes of the source that are not given here.

How the values were obtained:
tumor-bearing mice [1] = assay: Hematological parameters of tumor-bearing mice treated with ART; format: in vivo, BALB/c mice; conditions: 7 days
tumor-bearing mice [2] = assay: Mean survival time of tumor-bearing mice; format: in vivo, BALB/c mice; conditions: for MST: tumor-bearing mice, observed 90 days
Description: MST was calculated using the equation: MST (days) = (day of first mortality + day of last mortality)/2. The increase in survivability between treated and untreated groups was estimated by ILS% = [(MST of treated set/MST of untreated set) -1] X 100 ([26]).

4T1 mammary tumors = assay: Tumor size, weight and volume in 4T1 mammary tumor model; format: in vivo, BALB/c mice; conditions: 12.5, 25 and 50 mg/kg body weight of ART vs untreated tumor-bearing mice
Description: Mouse mammary 4T1 cells in passage numbers between 7 and 12 (10^4 cells/ml in 50 µl PBS) were injected into the inguinal 4th mammary fat pad of BALB/c mice ([23], [24]). Normal mice received an equal volume of sterile PBS. A palpable tumor was allowed to develop for 14 days ([24]). […] Normal (mammary fat pad surrounding the 4th inguinal mammary pad), mammary tumor, and organs like lungs, kidney, liver, and blood were collected at the end of the experimental schedule. Body weight and tumor volume of each mouse were recorded daily during the tenure of the experiment. Tumor volume was calculated using the following formula: length (mm) × width^2 (mm) × 0.52 ([25]).

4T1 cells = assay: Apoptotic cells (Annexin-FITC/PI flow cytometry) with or without CLEC12A overexpression; format: cell-based, murine; conditions: 4T1, non-transfected, ART + (1 µM, 24 hours); without ART 0.2%
Description: (§1) Cells, isolated from normal and treated/untreated tumor tissues by collagenase-hyaluronidase digestion, were washed with Ca^2+-free PBS and stained with Annexin V binding buffer (1X). The cells were then incubated with Annexin V-FITC and propidium iodide (PI) for 15 minutes at 37°C. Cells were eventually analyzed on the BD FACS Aria III (Alexa Fluor at 488nm and PE at 570 nm, respectively). The percentage of apoptotic and necrotic cells were analyzed using the […]™ software (BD Biosciences, USA; [37]). For transfection, MDA-MB-231 and 4T1 cells were grown in a 6-well plate until they reached 70% confluency. CLEC12A-pcDNA recombinant/empty DNA plasmid (2500ng) or pcDNA empty vector (2500ng) was transfected into cells using 5μl Lipofectamine® 2000 reagent. […] Finally, transfection efficiency was confirmed by western blot analysis ([42]).

MDA-MB-231 cells = assay: as above; format: cell-based, Human; conditions: MDA-MB-231, non-transfected, ART + (5 µM, 24 hours); without ART 0.5%
Description: as §1

[3] = system: ALDH+ cells (CSCs) of mammary tumors; assay: ALDH+ population estimation (Aldefluor) in tumors; format: in vivo, BALB/c mice; conditions: untreated tumor 24.1%
Description: Mammary fat pad and tumor tissues (1 × 10^6 cells/ml) were resuspended in aldefluor™ assay buffer containing ALDH substrate and incubated for 45 minutes at 37°C. As a control, cells were resuspended in buffer containing aldefluor substrate in the presence of diethylaminobenzaldehyde (DEAB), a specific ALDH inhibitor. The fluorescent ALDH^+ cells were detected in the green fluorescence channel (520-540nm) in a flow cytometer (BD FACS Aria III). ALDH^+ and ALDH^- cells were eventually sorted using the BD Aria III Cell Sorter and sorted cells collected for further analysis (BD Biosciences, USA; [21]).

[4] = system: cells isolated from the liver, kidney and lungs; assay: MTT viability of cells isolated from organs of treated mice; format: in vivo, BALB/c mice; conditions: MTT assay
Description: Tissue samples were immersed in 9 parts of serum-free DMEM and 1 part of enzyme cocktail. Digestion was performed at 37°C for 4 hours. Isolated cells were washed well to remove any remaining enzyme, resuspended in ice-cold PBS and filtered through a single cell mesh to dissociate cell clumps. Cell viability was checked using trypan blue dye exclusion test before using the cells for further assays ([21]). 1 x 10^5 viable cells were seeded in a 96-well plate. […] Following treatment, wells were washed to remove the media and 100 µl of PBS was added to each well. Finally, 10 µl of MTT solution (5 mg/mL in PBS) was added and incubated at 37°C for 3 hours. The purple crystals formed were dissolved in 150 µl of DMSO. Absorbance was measured at 570 nm in a multi-plate reader Varioskan™ Lux (Thermo Fisher Scientific, USA; [21]).

CLEC12A = assay: Western blot of CLEC12A in tumor tissues; format: in vivo, BALB/c mice; conditions: ART treatment, dose-dependent
Description: Normal and tumor tissues were homogenized in ice-cold radioimmunoprecipitation assay (RIPA) buffer containing a protease inhibitor cocktail. Proteins were resolved by 10% sodium dodecyl sulphate-polyacrylamide gel electrophoresis (SDS-PAGE), transferred onto polyvinylidene difluoride (PVDF) membranes, blocked with 5% fat-free milk and incubated with primary antibodies (1:1000 dilution) overnight at 4°C. Blots were subsequently washed and incubated with respective secondary antibodies, tagged with horseradish peroxidase. Protein expression was detected using enhanced chemiluminescence (ECL) kit ([37]). Blots were analyzed using the Gel Doc XR and band intensity quantified using ImageJ software (NIH, USA).

## C[C@@H]1CC[C@H]2[C@@H](C)C(=O)O[C@@H]3O[C@@]4(C)CC[C@@H]1[C@]32OO4 [ART, Artemisinin]
tumor-bearing mice [1]; ART 6.25 mg/kg body wt i.p.
  Differential Count % B (Basophils): 0%
  Differential Count % E (Eosinophils): 0%
  Differential Count % L (Lymphocyte): 36± 2.5%
  Differential Count % M (Monocytes): 1%
  Differential Count % N (Neutrophils): 63± 1.4%
  Hb: 10.1 ± 0.42 g/dL
  Total RBC: 5.1± 0.1 10^6 cells/mm^3
  Total WBC: 16.8± 0.8** 10^3 cells/mm^3
tumor-bearing mice [1]; ART 12.5 mg/kg body wt i.p.
  Differential Count % B (Basophils): 0%
  Differential Count % E (Eosinophils): 0%
  Differential Count % L (Lymphocyte): 51± 2.6 %
  Differential Count % M (Monocytes): 1%
  Differential Count % N (Neutrophils): 48± 2.6 %
  Hb: 13.7 ± 0.33 g/dL
  Total RBC: 6.3± 0.29^* 10^6 cells/mm^3
  Total WBC: 10.2± 1.16^*** 10^3 cells/mm^3
tumor-bearing mice [1]; ART 25 mg/kg body wt i.p.
  Differential Count % B (Basophils): 0%
  Differential Count % E (Eosinophils): 0%
  Differential Count % L (Lymphocyte): 53± 2.1 %
  Differential Count % M (Monocytes): 1%
  Differential Count % N (Neutrophils): 46± 1.3 %
  Hb: 14.2 ± 0.21 g/dL
  Total RBC: 6.7± 0.14^* 10^6 cells/mm^3
  Total WBC: 9.3± 1.8^*** 10^3 cells/mm^3
tumor-bearing mice [1]; ART 50 mg/kg body wt i.p.
  Differential Count % B (Basophils): 0%
  Differential Count % E (Eosinophils): 0%
  Differential Count % L (Lymphocyte): 57± 1.2 %
  Differential Count % M (Monocytes): 2%
  Differential Count % N (Neutrophils): 41± 1.5 %
  Hb: 14.6 ± 0.61 g/dL
  Total RBC: 7.6± 0.67^* 10^6 cells/mm^3
  Total WBC: 9.1± 1.23^*** 10^3 cells/mm^3
tumor-bearing mice [2]; Kaplan-Meier plot, untreated succumbed within 50 days
  mean survival of tumor-bearing mice treated with ART: ~90 days
tumor-bearing mice [2]; ART 6.25 mg/kg body wt
  MST: 48.2 ± 17.3 days
tumor-bearing mice [2]; ART 12.5 mg/kg body wt
  MST: 61.3 ± 8.9 days
tumor-bearing mice [2]; ART 25 mg/kg body wt
  MST: 75.4 ± 7.1 days
tumor-bearing mice [2]; ART 50 mg/kg body wt
  MST: 88.3 ± 8.9 days
4T1 mammary tumors
  tumor weight and volume: Significant decrease
4T1 cells
  percentage of apoptotic cells: 11%
MDA-MB-231 cells
  percentage of apoptotic cells: 22%
[3]; T+ 25: ART 25 mg/kg
  percentage of ALDH+ cells: 8.1%
[3]; T+ 50: ART 50 mg/kg
  percentage of ALDH+ cells: 6.2%
[4]; normal mice treated with ART
  viability of cells isolated from the liver, kidney and lungs: no loss of viability
[4]; tumor-bearing mice, increasing doses of ART
  viability of cells isolated from the liver, kidney and lungs: significantly increased cell viability
CLEC12A
  expression of CLEC12A: reduced
